These are literature values, as cited in patent publication US20060057204A1, “Pharmaceutical compositions containing venlafaxine” (priority 2002, published 2006).

The conditions of the data set: plural daily dosing regimen.

Where a name gives a salt, the structure may show the parent alone.

With `COc1ccc(C(CN(C)C)C2(O)CCCCC2)cc1` (centres unmarked) [venlafaxine hydrochloride, 1-[(2-dimethylamino)-1-(4-methoxyphenyl)ethyl] cyclohexanol], the “nausea, patients under treatment” value was “about forty five percent” and the “vomiting, patients” value is given as “about seventeen percent”.
